Assay results: patent US4255435A, “Triazole compounds” (priority 1980, dated 1981)
In brackets after ≈: the same amount, converted by molar mass.

What was measured:
Format in all cases: in vivo
[1] = tested on: larvae of the diamond back moth (Plutella maculipennis); experiment: Mortality of larvae of the diamond back moth on treated cabbage leaf; conditions: for LC50: Plutella, 48 h, read-out: Plutella maculipennis LD50 values; for ACTIVITY LD50: Table 1, cabbage leaf dipped in test solution, mortality after 24 + 24 hours, two replicates; for ACTIVITY LD50 / Plutella maculipennis LD50 values: 2880 min; for Plutella maculipennis LD50 values: Table 2, comparative 1,2,4-triazoles, method of Example 9
Description: (§1) Ten larvae were placed in a tube together with a square inch of cabbage leaf which had been dipped in the test solution and allowed to dry. After twenty-four hours untreated cabbage was added for food and after a further twenty-four hours an assessment was made of the mortality of the larvae.
Two replicates were carried out for each test compound and test solutions of varying concentrations employed so that an LD50 value could be calculated.

[2] = tested on: larvae of the codling moth (Cydia pomonella); experiment: Codling moth larvae on sprayed apple (number of strikes); conditions: Table 5, after five days, two replicates, 7200 min
Excerpt: This example illustrates the activity of compounds of the invention against the larvae of the codling moth (Cydia pomonella).
An apple sprayed with test solution was allowed to dry and a perspex ring of 1 inch diameter was attached to the apple. Ten larvae were then placed on the apple surface and contained within the ring by means of a muslin covering. After five days an assessment of mortality was made by counting the number of strikes (i.e. the number of entry holes) made by the larvae.

aphid Megoura viciae = experiment: Aphids on sprayed broad bean plants; conditions: Table 6; sprayed infested broad bean plants, 24 hours
Description: Broad bean plants 3 to 5 cm. high were infested with aphids and then sprayed with an aqueous dispersion containing varying concentrations of test compound. Each plant was kept under a lamp glass for 24 hours and then examined. In this way an LD50 value for the compounds was calculated.

[3] = tested on: eggs of the cabbage root fly (Erioischia brassicae); experiment: Egg hatch of cabbage root fly eggs in test solution; conditions: Table 4; eggs stored six days, egg hatch counted, two replicates; 8640 min
Excerpt: This example illustrates the activity of compounds of the invention against the eggs of the cabbage root fly (Erioischia brassicae).
The eggs were then stored for six days and the egg hatch then counted.

[4] = tested on: larvae of the cabbage white butterfly (Pieris brassicae); experiment: Mortality of larvae of the cabbage white butterfly on treated cabbage leaf; conditions: Table 3; cabbage leaf dipped in test solution, mortality after 24 + 24 hours, two replicates; 2880 min
Description: This example illustrates the activity of compounds of the invention against larvae of the cabbage white butterfly (Pieris brassicae).
as §1

[5] = tested on: nematode Meloidogyne incognita incognita; experiment: Root knots of tomato plants in nematode-infested treated soil; conditions: 100 parts per million per unit volume of soil, 30° C., ten days; untreated controls average more than 20 knots
Description: This example illustrates the activity of compounds of the invention against the nematode Meloidogyne incognita incognita.
Small tomato plants were transferred to containers with infested soil. Sufficient test compound to give a concentration of 100 parts per million per unit volume of soil was poured onto the soil and the containers suspended in warm water at 30° C.
After ten days the plants were knocked out of the containers and the roots washed clean, the number of knots being noted. The latter was an indication of activity and a low score indicated high activity.

For `CN(C)C(=O)n1cncn1` [1-dimethylcarbamoyl-1,2,4-triazole], the LC50 [1] was 1250 µg/mL (≈ 8.92 mM).

For `CSc1nc(C)nn1C(=O)N(C)C` [1-dimethylcarbamoyl-3-methyl-5-methylthio-1,2,4-triazole], the LC50 [1] was 2200 µg/mL (≈ 11 mM).

In the case of `CCc1nc(SC)n(C(=O)N(C)C)n1` [1-dimethylcarbamoyl-3-ethyl-5-methylthio-1,2,4-triazole], the LC50 [1] is reported as 1900 µg/mL (≈ 8.87 mM).

For `CN(C)C(=O)n1cnc(Cl)n1` [1-dimethylcarbamoyl-3-chloro-1,2,4-triazole], the LC50 [1] was > 5000 µg/mL.

“1(2)-N,N-dimethylcarbamoyl-3-s-butyl-5-methylthio-1,2,4-triazole [methyl methyl s-butyl methyl]” was tested, and the “ACTIVITY LD50” value [1] was 140 p.p.m, the “ACTIVITY LD50” value [2] was 14 p.p.m and the “ACTIVITY LD50” value (aphid Megoura viciae) was 0.32 p.p.m.

In the case of “1(2)-N,N-dimethylcarbamoyl-3-isopropyl-5-propylthio-1,2,4-triazole [methyl methyl isopropyl propyl]”, the “ACTIVITY LD50” value [1] is reported as 220 p.p.m, the “ACTIVITY LD50” value [3] is reported as 0.57 p.p.m and the “ACTIVITY LD50” value [2] is reported as < 10 p.p.m. For the same molecule, the “ACTIVITY LD50” value (aphid Megoura viciae) was 1.6 p.p.m.

With “1(2)-dimethlcarbamoyl-3-ethylthio-5-methyl-1,2,4-triazole” the “Plutella maculipennis LD50 values” [1] was 1600 p.p.m.

With `C#CCSc1nc(C(C)C)nn1C(=O)N(C)C` [methyl methyl isopropyl prop-2-ynyl, 1(2)-N,N-dimethylcarbamoyl-3-isopropyl-5-prop-2-ynylthio-1,2,4-triazole] the “ACTIVITY LD50” value [1] was 87 p.p.m, the “ACTIVITY LD50” value [4] was 31 p.p.m and the “ACTIVITY LD50” value (aphid Megoura viciae) was 1.5 p.p.m.

`C=C(Br)CSc1nc(C(C)(C)C)nn1C(=O)N(C)C` [methyl methyl t-butyl 2-bromoallyl, 1(2)-N,N-dimethylcarbamoyl-3-t-butyl-5-(2-bromoallylthio)-1,2,4-triazole] was tested, and the “ACTIVITY LD50” value [3] was 0.57 p.p.m and the “ACTIVITY LD50” value (aphid Megoura viciae) was 0.66 p.p.m.

`CCSc1ncn(C(=O)N(CC#N)CC#N)n1` [1-di(cyanomethyl)carbamoyl-3-ethylthio-1,2,4-triazole] was tested, and the LC50 [1] was > 5000 µg/mL.

With “1(2)-N,N-dimethylcarbamoyl-3-isopropyl-5-vinylthio-1,2,4-triazole [methyl methyl isopropyl vinyl]” the “ACTIVITY LD50” value [1] was < 25 p.p.m.

In the case of `C=CCN(CC=C)C(=O)n1cnc(SCCN(CC)CC)n1` [1-diallylcarbamoyl-3-(2-diethylaminoethylthio)-1,2,4-triazole], the LC50 [1] is reported as > 5000 µg/mL.

`Cc1ncn(C(=O)N(C)C)n1` [1-dimethylcarbamoyl-3-methyl-1,2,4-triazole] was tested, and the LC50 [1] was > 5000 µg/mL.

“1(2)-N,N-dimethylcarbamoyl-3-s-butyl-5-vinylthio-1,2,4-triazole [methyl methyl s-butyl vinyl]” was tested, and the “ACTIVITY LD50” value [1] was 160 p.p.m.

“1(2)-N,N-dimethylcarbamoyl-3-s-butyl-5-ethylthio-1,2,4-triazole [methyl methyl s-butyl ethyl]” was tested, and the “ACTIVITY LD50” value [1] was 220 p.p.m, the “ACTIVITY LD50” value [2] was 18 p.p.m and the “ACTIVITY LD50” value (aphid Megoura viciae) was 0.66 p.p.m.

With `Cc1nc(SCc2ccccc2)nn1C(=O)N(C)C` [1-dimethylcarbamoyl-3-benzylthio-5-methyl-1,2,4-triazole] the LC50 [1] was > 5000 µg/mL.

For `CSc1nc(-c2ccccc2)nn1C(=O)N(C)C` [1-dimethylcarbamoyl-3-phenyl-5-methylthio-1,2,4-triazole], the LC50 [1] was > 5000 µg/mL.

With `C=CCN(CC=C)C(=O)n1cnc(SCC(=O)OC)n1` [1-diallylcarbamoyl-3-methoxycarbonylmethylthio-1,2,4-triazole] the LC50 [1] was > 5000 µg/mL.

With `CN(C)C(=O)n1cnc(Sc2ccc([N+](=O)[O-])cc2[N+](=O)[O-])n1` [1-dimethylcarbamoyl-3-(2,4-dinitrophenylthio)-1,2,4-triazole] the LC50 [1] was > 5000 µg/mL.

With “1(2)-N,N-dimethylcarbamoyl-3-s-butyl-5-prop-2-ynylthio-1,2,4-triazole [methyl methyl s-butyl prop-2-ynyl]” the “ACTIVITY LD50” value [1] was 270 p.p.m.

For “1(2)-N,N-dimethylcarbamoyl-3-isopropyl-5-(2-chloroallylthio)-1,2,4-triazole [methyl methyl isopropyl 2-chloroallyl]”, the “ACTIVITY LD50” value [3] was 0.27 p.p.m and the “ACTIVITY LD50” value (aphid Megoura viciae) was 1.2 p.p.m.

“1(2)-N,N-dimethylcarbamoyl-3-isopropyl-5-ethylthio-1,2,4-triazole [methyl methyl isopropyl ethyl]” was tested, and the “ACTIVITY LD50” value [1] was 140 p.p.m and the “ACTIVITY LD50” value [2] was < 10 p.p.m.

`CCCCCCCCCCCCSc1nc(C)n(C(=O)N(C)C)n1` [1-dimethylcarbamoyl-3-dodecylthio-5-methyl-1,2,4-triazole] was tested, and the LC50 [1] was > 5000 µg/mL.

“1(2)-N-methyl-N-n-butylcarbamoyl-3-methylthio-5-methyl-1,2,4-triazole” was tested, and the “Plutella maculipennis LD50 values” [1] was > 5000 p.p.m.

For “1(2)-N,N-dimethylcarbamoyl-3-t-butyl-5-vinylthio-1,2,4-triazole [methyl methyl t-butyl vinyl]”, the “ACTIVITY LD50” value [1] was 160 p.p.m, the “ACTIVITY LD50” value (aphid Megoura viciae) was 0.61 p.p.m and the “number of knots on roots” value [5] was ≤ 2 knots.

`CCCCCCCCCCCc1nc(SC)n(C(=O)N(C)C)n1` [1-dimethylcarbamoyl-3-undecyl-5-methylthio-1,2,4-triazole] was tested, and the LC50 [1] was > 5000 µg/mL.

For “1(2)-N-ethyl-N-methylcarbamoyl-3-t-butyl-5-prop-2-ynylthio-1,2,4-triazole [ethyl methyl t-butyl prop-2-ynyl]”, the “ACTIVITY LD50” value [1] was 68 p.p.m.

Work on `CSc1ncn(C(=O)N(C)C)n1` [1-dimethylcarbamoyl-3-methylthio-1,2,4-triazole] yielded an LC50 [1] of 2300 µg/mL (≈ 12.3 mM).

`Cc1nc(C)n(C(=O)N(C)C)n1` [1-dimethylcarbamoyl-3,5-dimethyl-1,2,4-triazole] was tested, and the LC50 [1] was > 5000 µg/mL.

`CCOC(=O)CSc1nc(C)n(C(=O)N(C)C)n1` [1-dimethylcarbamoyl-3-ethoxycarbonylmethylthio-5-methyl-1,2,4-triazole] was tested, and the LC50 [1] was > 5000 µg/mL.

In the case of `CCCCCCCCCCCCSc1ncn(C(=O)N(C)C)n1` [1-dimethylcarbamoyl-3-dodecylthio-1,2,4-triazole], the LC50 [1] is reported as > 5000 µg/mL.

For `C=C(Cl)CSc1nc(C(C)(C)C)nn1C(=O)N(C)C` [methyl methyl t-butyl 2-chloroallyl, 1(2)-N,N-dimethylcarbamoyl-3-t-butyl-5-(2-chloroallylthio)-1,2,4-triazole], the “ACTIVITY LD50” value [3] was 0.22 p.p.m and the “ACTIVITY LD50” value (aphid Megoura viciae) was 1.6 p.p.m.

In the case of `CN(C)C(=O)n1cnc(Br)n1` [1-dimethylcarbamoyl-3-bromo-1,2,4-triazole], the LC50 [1] is reported as > 5000 µg/mL.

For `CN(C)C(=O)n1cnc(SSc2ncn(C(=O)N(C)C)n2)n1` [1-dimethylcarbamoyl-3-(1-dimethylcarbamoyl-1,2,4-triazole-3-yldithio)-1,2,4,-triazole], the LC50 [1] was > 5000 µg/mL.

In the case of “1(2)-pyrrolidinocarbonyl-3-methylthio-5-methyl-1,2,4-triazole”, the “Plutella maculipennis LD50 values” [1] is reported as > 5000 p.p.m.

With “1(2)-diallylcarbamoyl-3-ethylthio-5-methyl-1,2,4-triazole” the “Plutella maculipennis LD50 values” [1] was > 5000 p.p.m.

For “1(2)-N,N-dimethylcarbamoyl-3-s-butyl-5-(2-chloroallylthio)-1,2,4-triazole [methyl methyl s-butyl 2-chloroallyl]”, the “ACTIVITY LD50” value [3] was 0.8 p.p.m.

For `CN(C)C(=O)n1cnc(SC2CCCCC2)n1` [1-dimethylcarbamoyl-3-cyclohexylthio-1,2,4-triazole], the LC50 [1] was > 5000 µg/mL.

“2(2)-dimethylthiocarbamoyl-3-methylthio-5-methyl-1,2,4-triazole” was tested, and the “Plutella maculipennis LD50 values” [1] was > 5000 p.p.m.

With “1(2)-N,N-dimethylcarbamoyl-3-t-butyl-5-ethylthio-1,2,4-triazole [methyl methyl t-butyl ethyl]” the “ACTIVITY LD50” value [2] was 24 p.p.m, the “ACTIVITY LD50” value (aphid Megoura viciae) was 0.71 p.p.m and the “number of knots on roots” value [5] was ≤ 2 knots.

With `CCCCCCSc1ncn(C(=O)N(C)C)n1` [1-dimethylcarbamoyl-3-n-hexylthio-1,2,4-triazole] the LC50 [1] was > 5000 µg/mL.

“1(2)-diethylcarbamoyl-3-methylthio-5-methyl-1,2,4-triazole” was tested, and the “Plutella maculipennis LD50 values” [1] was > 5000 p.p.m.

`Cc1nc(Sc2ccc([N+](=O)[O-])cc2)nn1C(=O)N(C)C` [1-dimethylcarbamoyl-3-p-nitrophenylthio-5-methyl-1,2,4-triazole] was tested, and the LC50 [1] was > 5000 µg/mL.

For “1(2)-N,N-dimethylcarbamoyl-3-isopropyl-5-(2-bromoallylthio)-1,2,4-triazole [methyl methyl isopropyl 2-bromoallyl]”, the “ACTIVITY LD50” value [3] was 0.9 p.p.m.

With “1(2)-N,N-dimethylcarbamoyl-3-s-butyl-5-propylthio-1,2,4-triazole [methyl methyl s-butyl propyl]” the “ACTIVITY LD50” value [1] was 320 p.p.m, the “ACTIVITY LD50” value [2] was 10 p.p.m and the “ACTIVITY LD50” value (aphid Megoura viciae) was 0.86 p.p.m.

With `CC1CCN(C(=O)n2cncn2)CC1` [1-(4-methylpiperidinocarbonyl)-1,2,4-triazole] the LC50 [1] was > 5000 µg/mL.
